Columns and labels:
[1] = Stable lubricating film for solid-Liquid A-Liquid B combinations, theory versus experiment; type: physicochemical; set-up: key: “Y” indicates that Liquid B forms a stable lubricating film, and is not displaced by Object A; “N” indicates that Liquid B is displaced by Object A; settings: label = Liquid A
Description: When the relationship holds, the lubricating liquid will stay in intimate contact with the porous solid without being displaced by Liquid A. Note that the equilibrium contact angles were estimated from the average values of the advancing and receding contact angles of Liquid A and the lubricating liquid on the flat solid surface. Satisfying the relationship can help promote the operation stability of the slippery surface where the liquid layer is substantially completely covered by the test liquid (i.e., two-phase environments that involve a single fluid interface between the test liquid and the liquid layer) and where the liquid layer contacts a droplet of the test fluid as well as air (i.e., three-phase environments that involve three fluid interfaces of (i) test liquid-liquid layer, (ii) test liquid-air, and (iii) liquid layer-air). […] Notice that γA and γB are equivalent to γAX and γBX defined in the text, and medium X is air specifically in this context. Variable γAB represents the interfacial tension for Object A-Liquid B interface. […] M., Ind. Eng. Chem. 56, 40-42, 1964; Israelachvili, J. N. Intermolecular and Surface Forces, Academic Press, 2011). The dispersion force contribution of water surface tension […]., Ind. Eng. Chem. 56, 40-42, 1964). S. Epoxy represents silanized epoxy resin substrate.

[2] = Contact angles of various liquids on flat solids; type: physicochemical; set-up: unit not given here
Experimental: The behavior of liquids on surfaces is described by an equilibrium contact angle. An equilibrium contact angle, θ, is the angle at which a liquid/vapor interface meets a solid surface, which is determined by the interactions across the three interfaces, e.g., solid/liquid/vapor. […] The upper limit is known as the apparent advancing contact angle (θA), whereas the lower limit is referred as the apparent receding contact angle (θR). The difference between these values is known as contact angle hysteresis (i.e., Δθ=θA−θR, where θA≥θ≥θR), which characterizes the liquid repellency of a surface. Conventionally, equilibrium contact angle can be roughly estimated by the average of the advancing and receding angles (i.e., θ=(θA+θR)/2), or by a static contact angle, θstatic (i.e., θ=θstatic).
In practice, contact angle measurement can be performed by a number of different well-established techniques, such as the sessile drop method and the Wilhelmy method. In particular, the sessile drop method is among the most popular technique for contact angle measurement. In this technique, a liquid droplet is deposited on a targeted solid surface, where the liquid profile is captured by an optical system of a goniometer and geometrically fitted to obtain the contact angle. The contact angle measured from a static liquid droplet deposited on the surface is known as the static contact angle, θstatic. Using the same system, advancing contact angle, θA, can be measured while the volume of the drop is increasing until the wetting line starts to advance. Receding contact angle, θR, can be measured by decreasing the volume of the drop and determining the contact angle just before the wetting line recedes. Alternatively, the advancing and the receding angles of the liquid drop can also be determined by gradually tilting the solid surface until the liquid drop starts to move.

[3] = Surface tension of polar and non-polar liquids; type: physicochemical
Description: Fluid-fluid interfacial tension can be measured by many well-established techniques, such as the Wilhelmy plate method, the Du Noüy ring method, and the pendant drop method (e.g., see Drelich et al., in Encyclopedia of Surface and Colloid Science, pp. 3152-3166, Marcel Dekker Inc, 2002, the contents of which is incorporated by reference herein in its entirety). Among all of the techniques, the pendant drop method is among the most popular and versatile technique, which can be easily extended to a two-liquid system. The pendant drop method measures the shape of a fluid-fluid interface and quantifies the shape distortion due to the competition between the fluid-fluid interfacial tension and gravity. In practice, a drop of denser fluid (e.g., Object A) is suspended by a syringe needle in medium X (i.e., air/water/the lubricating fluid). Owing to the influence of gravity, the denser liquid droplet will be deformed as the liquid volume increases. The shape profile of the liquid droplet is captured by an optical system and subsequently analyzed by a computer software when the liquid volume is increased to the maximum possible size (i.e., before the liquid drop is detached from the syringe needle). The interfacial tension of the fluid-fluid interface, γ, can then be deduced from the formula, γ=ΔρgD^2/H, where Δρ is the density difference between the two immiscible fluids, g is gravity, D is equatorial diameter of the liquid droplet, and H is drop shape dependent parameters which is a function of the shape profile of the droplet.

P. aeruginosa = settings: 1% and 0.1% concentrations; 3, 6, 9, and 30 hours; 550 nm
[4] = Solid Epoxy, Liquid B FC-70, R 1
[5] = Solid Epoxy, Liquid B FC-70, R 2
[6] = Solid S. Epoxy (silanized epoxy resin), Liquid B FC-70, R 2
[7] = Solid Silicon, Liquid B H2O, R 1
[8] = flat solid S. (silanized epoxy)

SMILES	Stable Film? Exp. [1, 5]	Stable Film? Theory [1, 5]	Stable Film? Exp. [1, 6]	Stable Film? Theory [1, 6]	Stable Film? Exp. [1, 7]	Stable Film? Theory [1, 7]	Measured contact angle θadv ([2]; flat solid Epoxy)	Measured contact angle θrec ([2]; flat solid Epoxy)	Measured contact angle θstatic ([2]; flat solid Epoxy)	Measured contact angle θadv [2, 8]	Measured contact angle θrec [2, 8]	Measured contact angle θstatic [2, 8]	Measured contact angle θadv ([2]; flat solid Silicon)	Measured contact angle θrec ([2]; flat solid Silicon)	Measured contact angle θstatic ([2]; flat solid Silicon)	Surface Tension [3] [mN/m]	further results
CCCCCCCCCC [Decane]	N	N	Y	Y	N	N	15.0 ± 1.6	13.7 ± 0.9	14.2 ± 0.7	66.0 ± 4.1	38.5 ± 0.7	60.0 ± 2.8	7.9 ± 1.0	~0.0	<5.0	23.6 ± 0.1	Stable Film? Exp. [1, 4]: N; Stable Film? Theory [1, 4]: N
CCCCC [Pentane]	N	N	Y	Y	N	Y/N	~0.0	~0.0	~0.0	36.4 ± 2.5	17.0 ± 1.8	30.8 ± 3.1	<5.0	~0.0	<5.0	17.2 ± 0.5	
CCCCCCCCCCCCC [Tridecane]	N	N	Y	Y			28.3 ± 1.1	25.4 ± 0.7	26.9 ± 1.7	72.8 ± 0.2	48.1 ± 3.1	63.5 ± 2.8				25.9 ± 0.1	Stable Film? Exp. [1, 4]: N; Stable Film? Theory [1, 4]: Y/N
OCCO [Ethylene Glycol]																48.1 ± 0.3	
CCCCCCCCCCC [Undecane]																24.6 ± 0.2	
CCCCCCCCCCCC [Dodecane]																25.3 ± 0.1	
CCCCCCCC [Octane]	N	N	Y	Y	N	N	9.7 ± 1.2	6.1 ± 0.2	7.9 ± 0.7	57.7 ± 2.5	23.8 ± 4.0	50.7 ± 3.0	<5.0	~0.0	<5.0	21.4 ± 0.2	
CCCCCCCCCCCCCCCC [Hexadecane]	N	N	Y	Y	N	N	32.8 ± 1.4	25.7 ± 0.9	30.6 ± 0.4	76.3 ± 1.4	50.0 ± 3.9	70.5 ± 2.0	17.3 ± 1.6	~0.0	5.6 ± 1.1	27.2 ± 0.2	Stable Film? Exp. [1, 4]: N; Stable Film? Theory [1, 4]: Y/N
CCCCCCC [Heptane]																19.9 ± 0.3	
CCCCCC [Hexane]	N	N	Y	Y	N	Y/N	~0.0	~0.0	~0.0	52.5 ± 0.3	22.8 ± 1.7	40.1 ± 4.2	<5.0	~0.0	<5.0	18.6 ± 0.5	
O=CCCCC=O [glutaraldehyde, reference compound]																	bacterial growth (optical densities) compared to control culture (P. aeruginosa): massive toxicity
O [Water]	Y	Y/N	Y	Y			100.3 ± 3.1	67.0 ± 4.5	92.6 ± 1.8	118.9 ± 1.7	90.8 ± 0.9	113.1 ± 2.8	14.4 ± 2.7	~0.0	13.1 ± 1.7	72.4 ± 0.1	Stable Film? Exp. [1, 4]: N; Stable Film? Theory [1, 4]: Y/N; Stable Film? Exp. ([1]; Solid PDMS, Liquid B PDMS, R 1): Y; Stable Film? Theory ([1]; Solid PDMS, Liquid B PDMS, R 1): Y; Stable Film? Exp. ([1]; Solid PP, Liquid B PDMS, R 1): Y; Stable Film? Theory ([1]; Solid PP, Liquid B PDMS, R 1): Y; Stable Film? Exp. ([1]; Solid PP, Liquid B PDMS, R 2): Y; Stable Film? Theory ([1]; Solid PP, Liquid B PDMS, R 2): Y; Stable Film? Exp. ([1]; Solid PTFE, Liquid B PDMS, R 2): Y; Stable Film? Theory ([1]; Solid PTFE, Liquid B PDMS, R 2): Y
CCCCCCCCC [Nonane]																22.6 ± 0.2	
OCC(O)CO [Glycerol]																60.3 ± 1.1	

Source: patent US10982100B2, “Slippery liquid-infused porous surfaces and biological applications thereof” (President and Fellows of Harvard College, priority 2011, dated 2021)
